Data published in ChEMBL document CHEMBL1127812, “Molecular modeling studies on ligand binding to sialidase from influenza virus and the mechanism of catalysis” (J Med Chem, 1994).

Target: Neuraminidase (Influenza A virus (A/Puerto Rico/8/1934(H1N1)), UniProt P03468)
Sequence (P03468 whole entry): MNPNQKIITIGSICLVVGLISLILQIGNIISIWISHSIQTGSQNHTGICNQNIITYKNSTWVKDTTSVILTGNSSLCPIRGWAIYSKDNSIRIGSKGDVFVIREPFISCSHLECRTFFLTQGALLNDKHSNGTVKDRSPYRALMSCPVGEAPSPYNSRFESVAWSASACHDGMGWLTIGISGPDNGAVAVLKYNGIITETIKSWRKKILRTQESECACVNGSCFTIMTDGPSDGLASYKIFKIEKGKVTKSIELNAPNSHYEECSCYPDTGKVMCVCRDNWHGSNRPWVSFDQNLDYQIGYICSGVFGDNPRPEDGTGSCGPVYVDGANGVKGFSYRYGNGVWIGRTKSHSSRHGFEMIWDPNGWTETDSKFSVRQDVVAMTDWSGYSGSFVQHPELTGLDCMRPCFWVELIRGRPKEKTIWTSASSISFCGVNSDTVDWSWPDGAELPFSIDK
Description: inhibition of Influenza A Sialidase

CC(=O)NC1C(N)C=C(C(=O)O)OC1[C@H](O)[C@H](O)CO (stereo partly specified)
Ki: 40 nM
